Source: patent publication US12048309B2, “Materials and methods for preventing and dispersing exopolysaccharide-containing biofilms involving Listeria monocytogenes” (University of Wyoming, priority 2021, dated 2024)

Test system: EPS-biofilm formation by L. monocytogenes
Assay: Test of major ingredients of red maple (Acer rubrum) methanol extract for preventing EPS-biofilm formation
Type: cell-based, Listeria monocytogenes
Details: ingredients of methanol extract of dried red maple stems
Protocol: To identify active components responsible for preventing EPS-biofilm formation by L. monocytogenes, major ingredients from methanol extract of dried red maple stems, Acer rubrum, were tested. The tested compositions included catechin, epicatechin, procyanidin A2, epicatechin gallate, nortrachelogenin (also known as pinopalustrin), and nortrachelogenin 8′-O-β-D-glucopyranoside (also known as nortrachelogenin-8′-O-beta-glucoside).
Other major ingredients of the maple methanol extract, including catechin, epicatechin, procyanidin A2, and epicatechin gallate had no effect.

Compound	antibiofilm activity
O=C(O[C@@H]1Cc2c(O)cc(O)cc2O[C@@H]1c1ccc(O)c(O)c1)c1cc(O)c(O)c(O)c1 [epicatechin gallate]	no effect
Oc1cc(O)c2c(c1)O[C@H](c1ccc(O)c(O)c1)[C@H](O)C2 [epicatechin]	no effect
COc1cc(CC2COC(=O)C2(O)Cc2ccc(O)c(OC)c2)ccc1O (centres unmarked) [nortrachelogenin]	no significant antibiofilm activity
Oc1cc(O)c2c(c1)O[C@@]1(c3ccc(O)c(O)c3)Oc3cc(O)c4c(c3[C@@H]2[C@H]1O)O[C@H](c1ccc(O)c(O)c1)[C@H](O)C4 [procyanidin A2]	no effect
catechin	no effect
